# Measured values taken from PMC5414855 (Toxicological Sciences, 2017).
# How the values were obtained:
# [1] = system: zebrafish AHR1A, AHR1B, and AHR2; assay: Antisense morpholino knockdown, any of the morpholinos; format: in vivo
# [2] = system: 21 AHR-related, cardiac stress-related and oxidative stress gene transcripts
# [3] = target: T1, AHR2 (Danio rerio, UniProt Q9YGV3); assay: Antisense morpholino knockdown of AHR2 in Tg; format: in vivo, zebrafish; settings: for expression in the skin and vasculature in AHR2 morphants: not shown
# T1 sequence (Q9YGV3 1-1027): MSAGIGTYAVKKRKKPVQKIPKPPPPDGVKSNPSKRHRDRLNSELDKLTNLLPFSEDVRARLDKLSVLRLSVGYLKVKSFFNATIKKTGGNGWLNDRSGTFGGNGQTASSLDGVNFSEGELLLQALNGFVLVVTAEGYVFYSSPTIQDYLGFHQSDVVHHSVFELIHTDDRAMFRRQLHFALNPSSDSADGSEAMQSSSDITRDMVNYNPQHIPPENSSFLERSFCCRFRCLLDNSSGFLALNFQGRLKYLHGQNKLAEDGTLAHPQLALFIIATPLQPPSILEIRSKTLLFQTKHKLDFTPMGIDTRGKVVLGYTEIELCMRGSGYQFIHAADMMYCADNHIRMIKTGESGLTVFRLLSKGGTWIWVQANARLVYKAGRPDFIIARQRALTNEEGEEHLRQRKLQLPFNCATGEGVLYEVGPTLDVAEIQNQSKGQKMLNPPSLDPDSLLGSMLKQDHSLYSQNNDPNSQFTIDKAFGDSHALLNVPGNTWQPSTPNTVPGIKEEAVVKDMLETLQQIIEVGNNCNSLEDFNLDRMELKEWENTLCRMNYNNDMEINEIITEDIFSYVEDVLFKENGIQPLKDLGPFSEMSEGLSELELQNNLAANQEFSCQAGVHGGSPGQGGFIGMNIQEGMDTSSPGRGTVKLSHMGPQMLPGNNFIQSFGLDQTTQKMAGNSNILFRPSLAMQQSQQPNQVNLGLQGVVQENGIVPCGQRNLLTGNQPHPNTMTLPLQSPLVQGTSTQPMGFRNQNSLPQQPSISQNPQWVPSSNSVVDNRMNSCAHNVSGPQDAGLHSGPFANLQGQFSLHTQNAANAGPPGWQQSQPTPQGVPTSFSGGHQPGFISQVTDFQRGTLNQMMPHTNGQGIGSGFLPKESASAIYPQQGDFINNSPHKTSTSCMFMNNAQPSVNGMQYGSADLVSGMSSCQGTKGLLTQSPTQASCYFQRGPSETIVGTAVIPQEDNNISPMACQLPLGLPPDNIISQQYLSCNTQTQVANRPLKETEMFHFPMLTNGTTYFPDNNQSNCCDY
# [4] = system: cyp1a/GFP; settings: ref Goodale et al., 2015; cited from earlier work
# [5] = system: arg2; settings: 48 hpf embryos; dependent on AHR2; ref Goodale et al., 2015; cited from earlier work
# [6] = system: zebrafish embryos; settings: zebrafish embryos exposed 6 to 120 hpf; beyond the range of concentrations tested and beyond the range of accuracy of the EC50 model
# [7] = system: AHR1A; assay: Antisense morpholino knockdown of AHR1A in Tg; format: in vivo, zebrafish; settings: for cyp1a/GFP expression in the livers in AHR1A morphants: single concentration
# [8] = system: zebrafish embryos; assay: animal or person; settings: Danio rerio, read-out: EC50, calculated value beyond the range of concentrations tested, zebrafish embryos exposed 6 to 120 hpf; beyond the range of concentrations tested and beyond the range of accuracy of the EC50 model
# [9] = system: cyp1a; settings: transgenic Japanese Medaka; ref Ng and Gong, 2013; cited from earlier work
smiles,measurement,setting,value
"O=[N+]([O-])c1cc([N+](=O)[O-])c2ccc3cccc4ccc1c2c43 [1,3-dinitropyrene]",cyp1a/GFP expression in the yolk after injection with any of the morpholinos,[1],did not appear to decrease
same,"expression of nppb, increase","[2]; 3.56 µM, 120 hpf",23 fold
same,"expression of myl7, significant increase",[2]; 48 hpf,2 fold
same,number of differentially expressed genes,"[2]; 48 hpf, suite of 21 genes",4
"O=[N+]([O-])c1ccc2ccc3c([N+](=O)[O-])ccc4ccc1c2c43 [1,6-dinitropyrene]","cyp1a/GFP expression in the vasculature and/or skin (and neuromasts, for 7-nitrobenzo[k]fluoranthene) following knockdown of AHR2",[3],near-complete inhibition
same,toxicity in AHR2 morphants,[3],Decreased toxicity
same,expression in the skin and vasculature in AHR2 morphants,[3],reduced
same,"expression of cyp1a, cyp1b1, cyp1c1, and cyp1c2","[2]; 5 µM, at 48 and 120 hpf, vs DMSO control",Significantly increased expression
same,"expression of cyp1a1, increase","[2]; 48 hpf, compared to the DMSO exposed controls","1,963 fold"
same,expression of arg2,[2]; 120 hpf,significantly increased expression
"O=C1c2ccccc2-c2cccc3cccc1c23 [1,9-benz-10-anthrone]",cyp1a/GFP expression in the syncytial layer of the yolk,[4],previously observed
same,arg2 expression,[5],significantly elevated
O=[N+]([O-])c1ccc2cc3ccccc3cc2c1 [2-nitroanthracene],"EC50, calculated value beyond the range of concentrations tested",[6],beyond the tested range of concentrations
"O=[N+]([O-])c1c2c(cc3ccccc13)-c1ccc([N+](=O)[O-])c3cccc-2c13 [3,7-dinitrobenzo[k]fluoranthene]","cyp1a/GFP expression in the vasculature and/or skin (and neuromasts, for 7-nitrobenzo[k]fluoranthene) following knockdown of AHR2",[3],near-complete inhibition
same,expression in the skin and vasculature in AHR2 morphants,[3],reduced
O=[N+]([O-])c1ccc2c3c(cccc13)-c1ccccc1-2 [3-nitrofluoranthene],cyp1a/GFP expression in the yolk after injection with any of the morpholinos,[1],did not appear to decrease
O=[N+]([O-])c1ccc2c3c(cccc13)CC2 [5-nitroacenaphthalene],expression of arg2,[2]; 120 hpf,significantly increased expression
same,observed developmental toxicity in AHR1A morphants,[7],did not result in a substantial decrease
same,cyp1a/GFP expression in the livers in AHR1A morphants,[7],eliminated
O=[N+]([O-])c1c2ccccc2cc2c1ccc1ccccc12 [7-nitrobenz[a]anthracene],"EC50, calculated value beyond the range of concentrations tested",[6],beyond the tested range of concentrations
same,EC50,[8],238 µM
same,"cyp1a/GFP expression in the vasculature and/or skin (and neuromasts, for 7-nitrobenzo[k]fluoranthene) following knockdown of AHR2",[3],near-complete inhibition
same,"GFP expression in AHR2 morphants, vasculature",[3]; at both 48 and 120 hpf,Decreased GFP expression
O=[N+]([O-])c1c2c(cc3ccccc13)-c1cccc3cccc-2c13 [7-nitrobenzo[k]fluoranthene],"cyp1a/GFP expression in the vasculature and/or skin (and neuromasts, for 7-nitrobenzo[k]fluoranthene) following knockdown of AHR2",[3],near-complete inhibition
same,"GFP expression in AHR2 morphants, skin and neuromasts",[3]; at both 48 and 120 hpf,Decreased GFP expression
same,"expression of cyp1a, cyp1b1, and cyp1c1","[2]; 50 µM, at 120 hpf, vs DMSO control",Significantly increased expression
same,expression of arg2,[2]; 120 hpf,significantly increased expression
same,cyp1a/GFP expression in the livers in AHR1A morphants,[7],eliminated
O=[N+]([O-])c1cc2ccccc2c2ccccc12 [9-nitrophenanthrene],cyp1a/GFP expression in the livers in AHR1A morphants,[7],eliminated
c1ccc2c(c1)oc1ccccc12 [Dibenzofuran],"EC50, calculated value beyond the range of concentrations tested",[6],beyond the tested range of concentrations
same,EC50,[8],228 µM
Clc1cc2c(cc1Cl)Oc1cc(Cl)c(Cl)cc1O2 [TCDD],expression of cyp1a in the neuromasts,[9],observed previously
